In patent US11793824B2, “Administration of nicotinamide mononucleotide in the treatment of disease” (Washington University, priority 2013, dated 2023):

Legend:
neurospheres (NSPCs) = assay: Neurosphere proliferation, marker proteins and cell cycle under FK866; type: cell-based, mouse
Method: Protein extracts (15-50 μg) from mouse hippocampi or neurospheres were prepared as previously described (Yoshino et al, 2011).
Total RNA was extracted from the hippocampus using an RNeasy kit (Qiagen) and reverse-transcribed into cDNA with a High Capacity cDNA Reverse Transcription kit (Applied Biosystems). Quantitative real-time RT-PCR was conducted with the TaqMan Fast Universal PCR Master mix and appropriate TaqMan primers for each gene with the GeneAmp 7500 fast sequence detection system (Applied Biosystems). Relative expression levels were calculated for each gene by normalizing to Gapdh levels and then to a control.
FK866 (Hasmann & Schemainda, 2003) (Sigma F8557), EX527 (Peck et al, 2010) (Cayman Chemical 10009798), and AGK2 (Outeiro et al, 2007) (Sigma A8231) were dissolved in DMSO and used to inhibit Nampt, Sirt1, and Sirt2 respectively.
Neurosphere cultures and culture media were prepared as described by Dasgupta & Gutmann, 2005 and Lu & Ramanan, 2012 with the following minor modifications. Briefly, postnatal hippocampi were dissected in HibernateA (Invitrogen, A12475-01) and trypsinized at 37° C. for 7 m. Cells were mechanically dissociated by pipetting and pelleted by centrifugation (1700 rpm, 7 min). Dissociation medium (0.1% sodium bicarbonate, 15 mM HEPES, 0.5% glucose in HBSS) was used to wash the cells before they were resuspended in growth medium. Growth medium consisted of DMEM:F12 (1:1, Invitrogen 11966-025 and 21700-075, respectively), B27 (Invitrogen, 17504-044), N2 (Invitrogen, 17502-048), Pen/Strep (Invitrogen), epidermal growth factor (EGF, 20 ng/ml, Sigma, E4127), fibroblast growth factor (FGF, 10 ng/mL, R&D Systems, 233-fb), and heparin (Sigma). Cultures were maintained at 37° C. with 5% CO2, and passaged twice before use in experiments. Three to nine independent samples, each in 1 to 3 replicates, from at least two different litters, were used in all experiments. Neurospheres were cultured in the physiological glucose level of 5 mM (Dienel & Cruz, 2006), which has been previously shown to have no negative consequences on NSPC proliferation, differentiation, or death (Fu et al, 2006; Gao & Gao, 2007).
Neurospheres derived from Nampt^flox/flox mice were dissociated by trypsin digestion and seeded at similar cell densities in 24-well plates with fresh growth medium. Every 24 hours, neurospheres from triplicate wells were collected, dissociated, and counted on a hemocytometer using 0.2% trypan blue exclusion to distinguish viable cells. For analysis of neurosphere diameter, the largest neurosphere in each well was imaged (20× objective) and the diameter was calculated using ImageJ. For secondary neurosphere analysis, the total number of neurospheres in each well was counted at 7 days post-plating.
The inventors investigated how inhibition of Nampt affects neurosphere proliferation. […] To distinguish whether this decrease in cell number was due to an inhibition of proliferation or enhancement of death, the inventors analyzed the protein levels of markers of proliferation, apoptosis, and autophagy. […] Parametric analysis of gene enrichment (PAGE) was conducted based on microarray analyses. See the Methods section. […] Data are presented as mean±s.e.m. *P<0.05. **P<0.01. ***P<0.001.

NAMPT rod-CKO mice = assay: ERG rescue in NAMPT rod-CKO mice; type: in vivo, mouse
Text: The inventors examined the effect of selectively disrupting NAD biosynthesis within PR. The inventors utilized the cre-lox strategy to generate mice that had NAMPT conditionally deleted from either rods (NAMPT rod-CKO) or cones (NAMPT cone-CKO). The NAMPT fl/fl mice as well as the rhodopsin-cre and cone opsin-cre mice have been previously characterized. Both rod and cone cko mice are generated with normal Mendelian frequencies and are born normal with no observable systemic abnormalities (data not shown). All structural and functional analyses performed in CKO mice are analyzed in comparison to littermate controls. Rods constitute a majority of the PR neurons (97% of all photoreceptors). […] Neurosensory retinal degeneration was associated with secondary atrophy and pallor of the optic nerve (FIG. 29C).
The present inventors determined that exogenous supplementation with NMN is able to rescue PR neurons from cell death in CKO mice. Intraperitoneal (i.p.) delivery was chosen to obtain early and sustained levels of NMN. In these experiments, NAMPT rod-CKO mice were given NMN (150 mg/kg) or PBS i.p. daily starting at day P5. […] There was no effect of NMN on littermate control animals.

[1] = FK866 10 nM, 48 hours, immunoblot

O=C(/C=C/c1cccnc1)NCCCCC1CCN(C(=O)c2ccccc2)CC1 [FK866]
cyclins E and A and E2F1 mRNA (qRT-PCR) (neurospheres (NSPCs); FK866 10 nM, 48 hours): the primary cell cycle factors affected
levels of activated caspase 3 (neurospheres (NSPCs); FK866 10 nM, 48 hours): only slightly increased
levels of autophagy marker glycosylated LC3B (neurospheres (NSPCs); FK866 10 nM, 48 hours): unchanged
reduction of NSPC number (neurospheres (NSPCs); FK866 10 nM, 48 hours): 61%
decrease of Ki67 protein expression (neurospheres (NSPCs); [1]): 87%
decrease of PCNA protein expression (neurospheres (NSPCs); [1]): 43%
proportion of NSPCs in G0/G1 (FACS) (neurospheres (NSPCs); FK866 treatment): increased the proportion of NSPCs in G0/G1
proportion of NSPCs in S phase (FACS) (neurospheres (NSPCs); FK866 treatment): decreased the proportion in S phase

NC(=O)c1ccc[n+]([C@@H]2O[C@H](COP(=O)([O-])O)[C@@H](O)[C@H]2O)c1 [NMN, nicotinamide mononucleotide]
effect on littermate control animals (NAMPT rod-CKO mice; NMN 150 mg/kg i.p. daily): no effect
photopic and scotopic function (ERG) (NAMPT rod-CKO mice; NMN 150 mg/kg i.p. daily from P5, ERG at 4 weeks, vs PBS): significant rescue
